Tests used:
[1] = system: P. taeda embryogenic cell lines; assay: Effect of ABA in preparation, recovery and selection media on transformants after Agrobacterium inoculation; type: cell-based, Pinus taeda
Excerpt: (§1) Seven loblolly pine cell lines or hybrid cell lines from seven widely diverse genetic backgrounds were used which had been grown, maintained, and transformed using Agrobacterium as described in Example 1 above except that the preparation medium, used for preparation and co-cultivation of the cells, either contained or lacked ABA. Following eradication using wash medium as described in Example 5 above, polyester support membranes bearing approximately 0.1 g of embryogenic tissue were divided onto recovery media either containing or lacking ABA. […] Concentrations of ABA used in all these media were 0, 10, and 30 mg/L.
(§2) Cells were maintained on the selection media, with transfer of the polyester support membranes to fresh selection media of the same composition, every two weeks for a total of eight weeks of selection. […] The cells were also checked for the presence of sequences by PCR amplification using primers specific for both the uidA and nptII transgenes, techniques well known to those skilled in the art of plant transformation.

[2] = system: P. rigida hybrid embryogenic cell line; assay: as above; type: cell-based; conditions: line H1
Excerpt: as §1, §2

Loblolly pine cell lines = assay: ABA in selection media after biolistic transformation; type: cell-based, Pinus taeda
Excerpt: Loblolly pine cell lines were used which had been grown and maintained as described in Example 1 above, and prepared for biolistic transformation as described in Example 4 above. Following bombardment the support membranes bearing the bombarded embryogenic cells were transferred to DCR2 maintenance media for one week. Following this the support membranes bearing the bombarded embryogenic cells were divided among plates containing gelled DCR selection medium either with or without the addition of 10 mg/l abscisic acid (ABA), and cultured for three weeks. Cells selected on either type of selection medium during this first selection period on selection medium containing ABA were then divided among plates with and without ABA and cultured for a further three weeks. The same occurred in the next transfer, resulting in groups of cells that had been selected entirely in the absence of ABA, entirely in the presence of ABA, or in the presence of ABA for one of the three three-week selection periods.

`CC1=CC(=O)CC(C)(C)[C@@]1(O)/C=C/C(C)=C\C(=O)O` [ABA, abscisic acid] was tested, and the “effect of ABA in the preparation medium on the observation of transformants” value ([1]; 10 or 30 mg/L ABA) was “neutral or beneficial”, the “necrotic foci in somatic embryogenic masses versus media without ABA” value ([1]; 10 or 30 mg/L ABA during and after co-cultivation, all lines) was “fewer necrotic foci” and the “Average (n = 12) number of transformants observed per selection plate” value (from here on “Average (n = 12) number … per selection plate”) ([1]; line P1, ABA mg/l preparation/recovery/selection medium 0/0/10) was 0.3. For the same molecule, the “Average (n = 12) number … per selection plate” value ([1]; line P1, ABA mg/l preparation/recovery/selection medium 0/0/30) was 0.0, the “Average (n = 12) number … per selection plate” value ([1]; line P1, ABA mg/l preparation/recovery/selection medium 0/10/10) was 0.0 and the “Average (n = 12) number … per selection plate” value ([1]; line P1, ABA mg/l preparation/recovery/selection medium 0/10/30) was 0.1. For the same molecule, the “Average (n = 12) number … per selection plate” value ([1]; line P1, ABA mg/l preparation/recovery/selection medium 0/30/30) was 0.8, the “Average (n = 12) number … per selection plate” value ([1]; line P1, ABA mg/l preparation/recovery/selection medium 10/10/10) was 1.3 and the “Average (n = 12) number … per selection plate” value ([1]; line P1, ABA mg/l preparation/recovery/selection medium 30/10/10) was 0.3. For the same molecule, the “Average (n = 12) number … per selection plate” value ([1]; line P1, ABA mg/l preparation/recovery/selection medium 30/30/30) was 0.4, the “Average (n = 12) number … per selection plate” value ([1]; line P2, ABA mg/l preparation/recovery/selection medium 0/0/10) was 5.8 and the “Average (n = 12) number … per selection plate” value ([1]; line P2, ABA mg/l preparation/recovery/selection medium 0/0/30) was 8.8. For the same molecule, the “Average (n = 12) number … per selection plate” value ([1]; line P2, ABA mg/l preparation/recovery/selection medium 0/10/10) was 1.0, the “Average (n = 12) number … per selection plate” value ([1]; line P2, ABA mg/l preparation/recovery/selection medium 0/10/30) was 0.3 and the “Average (n = 12) number … per selection plate” value ([1]; line P2, ABA mg/l preparation/recovery/selection medium 0/30/30) was 5.2. The “Average (n = 12) number … per selection plate” value ([1]; line P2, ABA mg/l preparation/recovery/selection medium 10/10/10) was 10.0, the “Average (n = 12) number … per selection plate” value ([1]; line P2, ABA mg/l preparation/recovery/selection medium 30/10/10) was 5.9 and the “Average (n = 12) number … per selection plate” value ([1]; line P2, ABA mg/l preparation/recovery/selection medium 30/30/30) was 5.3. For the same molecule, the “Average (n = 12) number … per selection plate” value ([1]; line P3, ABA mg/l preparation/recovery/selection medium 0/0/10) was 21.7, the “Average (n = 12) number … per selection plate” value ([1]; line P3, ABA mg/l preparation/recovery/selection medium 0/0/30) was 22.3 and the “Average (n = 12) number … per selection plate” value ([1]; line P3, ABA mg/l preparation/recovery/selection medium 0/10/10) was 23.3. The “Average (n = 12) number … per selection plate” value ([1]; line P3, ABA mg/l preparation/recovery/selection medium 0/10/30) was 26.0, the “Average (n = 12) number … per selection plate” value ([1]; line P3, ABA mg/l preparation/recovery/selection medium 0/30/30) was 18.6 and the “Average (n = 12) number … per selection plate” value ([1]; line P3, ABA mg/l preparation/recovery/selection medium 10/10/10) was 22.6. The “Average (n = 12) number … per selection plate” value ([1]; line P3, ABA mg/l preparation/recovery/selection medium 30/10/10) was 21.6, the “Average (n = 12) number … per selection plate” value ([1]; line P3, ABA mg/l preparation/recovery/selection medium 30/30/30) was 21.1 and the “Average (n = 12) number … per selection plate” value ([1]; line P4, ABA mg/l preparation/recovery/selection medium 0/0/10) was 27.5. The “Average (n = 12) number … per selection plate” value ([1]; line P4, ABA mg/l preparation/recovery/selection medium 0/0/30) was 34.9, the “Average (n = 12) number … per selection plate” value ([1]; line P4, ABA mg/l preparation/recovery/selection medium 0/10/10) was 28.8 and the “Average (n = 12) number … per selection plate” value ([1]; line P4, ABA mg/l preparation/recovery/selection medium 0/10/30) was 30.9. For the same molecule, the “Average (n = 12) number … per selection plate” value ([1]; line P4, ABA mg/l preparation/recovery/selection medium 0/30/30) was 28.6, the “Average (n = 12) number … per selection plate” value ([1]; line P4, ABA mg/l preparation/recovery/selection medium 10/10/10) was 27.8 and the “Average (n = 12) number … per selection plate” value ([1]; line P4, ABA mg/l preparation/recovery/selection medium 30/10/10) was 22.7. The “Average (n = 12) number … per selection plate” value ([1]; line P4, ABA mg/l preparation/recovery/selection medium 30/30/30) was 27.3, the “Average (n = 12) number … per selection plate” value ([1]; line P5, ABA mg/l preparation/recovery/selection medium 0/0/10) was 18.1 and the “Average (n = 12) number … per selection plate” value ([1]; line P5, ABA mg/l preparation/recovery/selection medium 0/0/30) was 5.5. The “Average (n = 12) number … per selection plate” value ([1]; line P5, ABA mg/l preparation/recovery/selection medium 0/10/10) was 2.4, the “Average (n = 12) number … per selection plate” value ([1]; line P5, ABA mg/l preparation/recovery/selection medium 0/10/30) was 7.2 and the “Average (n = 12) number … per selection plate” value ([1]; line P5, ABA mg/l preparation/recovery/selection medium 0/30/30) was 3.3. For the same molecule, the “Average (n = 12) number … per selection plate” value ([1]; line P5, ABA mg/l preparation/recovery/selection medium 10/10/10) was 10.3, the “Average (n = 12) number … per selection plate” value ([1]; line P5, ABA mg/l preparation/recovery/selection medium 30/10/10) was 11.3 and the “Average (n = 12) number … per selection plate” value ([1]; line P5, ABA mg/l preparation/recovery/selection medium 30/30/30) was 14.3. The “Average (n = 12) number … per selection plate” value ([1]; line P6, ABA mg/l preparation/recovery/selection medium 0/0/10) was 3.9, the “Average (n = 12) number … per selection plate” value ([1]; line P6, ABA mg/l preparation/recovery/selection medium 0/0/30) was 3.3 and the “Average (n = 12) number … per selection plate” value ([1]; line P6, ABA mg/l preparation/recovery/selection medium 0/10/10) was 3.2. The “Average (n = 12) number … per selection plate” value ([1]; line P6, ABA mg/l preparation/recovery/selection medium 0/10/30) was 3.2, the “Average (n = 12) number … per selection plate” value ([1]; line P6, ABA mg/l preparation/recovery/selection medium 0/30/30) was 2.3 and the “Average (n = 12) number … per selection plate” value ([1]; line P6, ABA mg/l preparation/recovery/selection medium 10/10/10) was 4.5. The “Average (n = 12) number … per selection plate” value ([1]; line P6, ABA mg/l preparation/recovery/selection medium 30/10/10) was 3.1, the “Average (n = 12) number … per selection plate” value ([1]; line P6, ABA mg/l preparation/recovery/selection medium 30/30/30) was 2.3 and the “Average (n = 12) number … per selection plate” value ([2]; ABA mg/l preparation/recovery/selection medium 0/0/10) was 27.0. The “Average (n = 12) number … per selection plate” value ([2]; ABA mg/l preparation/recovery/selection medium 0/0/30) was 21.1, the “Average (n = 12) number … per selection plate” value ([2]; ABA mg/l preparation/recovery/selection medium 0/10/10) was 19.0 and the “Average (n = 12) number … per selection plate” value ([2]; ABA mg/l preparation/recovery/selection medium 0/10/30) was 21.6. For the same molecule, the “Average (n = 12) number … per selection plate” value ([2]; ABA mg/l preparation/recovery/selection medium 0/30/30) was 15.1, the “Average (n = 12) number … per selection plate” value ([2]; ABA mg/l preparation/recovery/selection medium 10/10/10) was 21.9 and the “Average (n = 12) number … per selection plate” value ([2]; ABA mg/l preparation/recovery/selection medium 30/10/10) was 22.9. For the same molecule, the “Average (n = 12) number … per selection plate” value ([2]; ABA mg/l preparation/recovery/selection medium 30/30/30) was 21.8, the “transformants from a cell line of progeny of the P. taeda elite line 7–56” value (Loblolly pine cell lines; 10 mg/L ABA in selection medium) was “observed only on treatments that had contained ABA in the selection medium” and the “number of transformants obtained when ABA was present during the entire selection period” value (Loblolly pine cell lines; 10 mg/l ABA in DCR selection medium, nine weeks, all lines tested) was “equal to or greater than the number obtained for any other treatment”.

— US7157620B2, “Enhanced transformation and regeneration of transformed embryogenic pine tissue” (Mead Westvaco Corporation, priority 2000, dated 2007)
